We go through one molecule from US20180369166A1, “GARCINOL COMPOSITIONS FOR THERAPEUTIC MANAGEMENT OF ENDOPLASMIC RETICULUM STRESS” (priority 2017, published 2018).

One data set has as its system HepG2 Cells. Briefly: Alcohol induced toxicity in HepG2 cells (SRB assay). The data set is classed as cell-based, human. As to conditions: 10 μg/ml; 1000 mM Ethanol for 72 hours; FIG. 6. How it is done: (§1) HepG2—human liver cell line, primary mouse hepatocytes. Min6—Mouse pancreatic beta cell line, 3T3 L1—mouse preadipocytes wee used for the experiments. Cells were maintained in DMEM containing 25 mM glucose with 10% heat-inactivated fetal calf serum with antibiotics at 37° C. and 5% CO2. When the cells were 70-80% confluent, they were trypsinized, washed and seeded in 96 well plates at a density of 5×10^3 cells per well. Stress was induced by Thapsigargin(1 uM) for 4 hours, glucose (50 and 100 mM) and alcohol (1000 mM) or paracetamol (4 mM) for 72 hours. Garcinol was added along with stressor as prophylactic treatment. As a therapeutic treatment, cells were exposed to stress agent 24 hours following which Garcinol was added to the cells. Protection was assessed by SRB assay after 72 hours of treatment
For evaluating alcohol induced toxicity, HepG2 Cells were exposed to 1000 mM of Ethanol for 72 hours in the presence of different concentrations of Garcinol and protection was assessed by SRB assay. Garcinol conferred hepatoprotection against alcohol induced toxicity by 47% at concentration of 10 μg/ml (FIG. 6).
Background: In SRB staining, fixed cells bind dye roughly in proportion to their protein.

Data set [1] relates to primary mouse hepatocytes. Briefly: Thapsigargin induced protein aggregation in primary mouse hepatocytes (thioflavin staining). Type of data set: cell-based. As to conditions: 10 μg/ml; 1 μM Thapsigargin; FIG. 7c.
In data set [2] the test system is Human Liver cell line (HepG2). Briefly: Thapsigargin induced protein aggregation in human liver cells (thioflavin staining, flow cytometry). As to conditions: 10 μg/ml, 1 μM Thapsigargin, FIGS. 7a and 7b. Type of data set: cell-based. The protocol: as §1
IRE1α phosophorylation levels can be assessed by measuring spliced. XBP-1 product by RT PCR. PERK activation is measured by its phosphorylation levels or by measuring the ATF4 mRNA levels. Activation of ATF4 leads to increased transcription of a network of genes, including those encoding ER chaperones, such as BiP/GRP78.
Effect of Garcinol on Thapsigargin induced ER stress in human liver cells was also evaluated. […] Treated and untreated cells were analysed by Flow cytometry and RT PCR.
A general note: Flow cytometry measures light scatter and fluorescence of single cells or particles in a stream.

Regarding `C=C(C)[C@@H](CC=C(C)C)C[C@@]12C[C@@H](CC=C(C)C)C(C)(C)[C@@](CC=C(C)C)(C(=O)C(C(=O)c3ccc(O)c(O)c3)=C1O)C2=O` [Garcinol], the “hepatoprotection against alcohol induced toxicity” value with HepG2 Cells is listed as 47%. Moreover, in data set [1], the “reduction in protein aggregation in primary mouse hepatocytes” value is reported as 70.4%. In addition, in data set [2], the “reduction in protein aggregation in human liver cells” value is recorded as 44.4%.
